Here are results for 42 molecules from patent publication US20070032529A1, “Pyrazole compounds and their use as antidiabetes agents” (Japan Tobacco Inc., priority 2005, published 2007).

pIC50: −log10 of the molar value. Where two headings read alike, the source gives them in different places. Bounds are passed on as bounds.

For orientation: pIC50 means the IC50 on a negative log10 scale, so that one unit is a factor of ten.

The assay has as its target T1, recombinant human liver glycogen phosphorylase (Homo sapiens, UniProt P06737).
T1 construct: made in house; host or cells: Sf9 insect cells (crude homogenate, diluted, used as the enzyme solution)
T1 sequence (P06737 1-847): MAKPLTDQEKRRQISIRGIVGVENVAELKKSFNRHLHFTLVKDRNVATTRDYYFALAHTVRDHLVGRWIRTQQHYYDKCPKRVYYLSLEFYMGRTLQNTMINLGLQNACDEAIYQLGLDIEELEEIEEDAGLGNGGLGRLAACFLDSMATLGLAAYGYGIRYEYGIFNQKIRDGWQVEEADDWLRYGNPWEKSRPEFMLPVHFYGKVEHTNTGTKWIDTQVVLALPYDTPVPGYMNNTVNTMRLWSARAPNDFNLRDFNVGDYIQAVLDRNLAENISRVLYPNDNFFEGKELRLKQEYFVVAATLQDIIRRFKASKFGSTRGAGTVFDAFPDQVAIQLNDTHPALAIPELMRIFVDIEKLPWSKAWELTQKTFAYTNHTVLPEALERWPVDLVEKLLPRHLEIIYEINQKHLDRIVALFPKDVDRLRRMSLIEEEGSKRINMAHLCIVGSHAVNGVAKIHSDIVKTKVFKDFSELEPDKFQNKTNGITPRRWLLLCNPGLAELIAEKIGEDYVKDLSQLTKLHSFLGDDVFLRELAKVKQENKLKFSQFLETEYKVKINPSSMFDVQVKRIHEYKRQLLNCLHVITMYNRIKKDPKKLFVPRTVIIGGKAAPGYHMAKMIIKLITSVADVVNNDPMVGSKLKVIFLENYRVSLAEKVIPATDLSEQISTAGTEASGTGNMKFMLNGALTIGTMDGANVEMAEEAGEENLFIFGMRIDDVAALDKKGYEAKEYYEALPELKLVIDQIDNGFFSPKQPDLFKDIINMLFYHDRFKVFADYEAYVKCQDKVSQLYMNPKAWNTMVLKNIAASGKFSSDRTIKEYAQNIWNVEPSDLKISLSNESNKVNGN
Nature of the assay: Measuring liver glycogen phosphorylase activity (forward reaction system, NADPH absorbance at 340 nm). It is filed as biochemical. The settings on record: for inhibition at 1 µM: compound concentration 1000 nmol (in parentheses). On the procedure: [Pharmacological Test] 1. Exemplary Test (1) Method for Measuring Liver Glycogen Phosphorylase Activity
The measurement of glycogen phosphorylase activity was carried out by a method using the forward reaction system.
The measurement of glycogen phosphorylase activity using the forward reaction system was carried out as follows. Glucose-1-phosphate prepared from glycogen by glycogen phosphorylase was converted into glucono-δ-lactone 6-phosphate through transphosphorylation and dehydrogenation using phosphoglucomutase and glucose-6-phosphate dehydrogenase (G6PDH). NADPH generated from NADP during the dehydrogenation by G6PDH was detected.
A homogenate of the Sf9 cells which expressed exogenously recombinant human liver glycogen phosphorylase was diluted with 100 mmol/LBES buffer solution (pH 6.8, containing 2 mmol/L EDTA) and the dilution was used as the enzyme solution of human liver glycogen phosphorylase. As the substrate, a phosphate buffer (containing 16 mmol/L KH2PO4, 24 mmol/L Na2HPO4) was used. A mixture of 8 U/mL phosphoglucomutase and 60 U/mL G6PDH was prepared in BES buffer solution. Buffer solution (containing 1.4 mmol/L NADP, 30 mmol/L MgCl2, 8 μmol/L glucose-1,6-diphosphate, 8 mg/mL glycogen, 40 mmol/LBES, 0.8 mmol/L EDTA) for reaction and a glucose solution (containing 75 mmol/L glucose, 100 mmol/LBES, 2 mmol/L EDTA) were prepared individually. The test compound was dissolved in 1% DMSO solution.
The enzymatic reaction was begun by adding 20 μL of the recombinant human liver glycogen phosphorylase solution and 20 μL of the mixture of phosphoglucomutase and G6PDH to the mixture of 20 μL of the glucose solution, 20 μL of the substrate, 100 μL of the buffer solution for reaction and 20 μL of the test compound solution. As control, 1% DMSO solution was added instead of the test compound. The mixture without the substrate was used as blank. The absorbance at 340 nm was measured immediately after the reaction started. The absorbance at 340 nm was measured again after reacting at room temperature for 75 minutes. The enzymatic activity is a value obtained by subtracting the blank variation in absorbance over 75 minutes from the variation in absorbance over 75 minutes.
The inhibition rate (%) of the test compound was calculated by the expression “(1-enzymatic activity of test compound/enzymatic activity of control)×100.”
A linear equation was determined from the two concentration points with the 50% inhibition rate therebetween, and the IC50 value was calculated from the concentration at the intersection of the line with the 50% inhibition rate.
“IC50” in the tables indicates the above-described enzyme inhibitory activity with respect to liver glycogen phosphorylase, and the activity to inhibit liver glycogen phosphorylase was represented as ++ when the IC50 value (nmol/L) was less than 100 nmol/L, as + when the IC50 value was between 100 nmol/L and 300 nmol/L. When IC50 is 300 nmol/L or more, an inhibition rate (%) at a certain concentration of the compound (I) of the present invention is shown in Tables. For example, when the inhibition rate is 20% at a concentration of 300 nmol, the rate is described as 20% (300).

Setting [1] is: compound concentration 100 nmol (in parentheses), read-out: inhibition rate (%) at a certain concentration.
Setting [2] is: human liver glycogen phosphorylase, class symbol.
[3] abbreviates: enzyme inhibitory activity with respect to liver glycogen phosphorylase, class symbols.
[4] abbreviates: figure in brackets (100), read-out: IC50: % value given with (100).
The mark [5] stands for this setting: read-out: inhibition rate (%) at a certain concentration.
Where [6] appears, read: compound concentration 300 nmol (in parentheses), read-out: inhibition rate (%) at a certain concentration.
The mark [7] stands for this setting: figure in brackets (300), read-out: IC50 column: % value printed with (300).

With `O=C(NCc1ccccc1)c1cc(NC(=O)c2ccncc2Cl)[nH]n1` [Example 4-44], the inhibition at 0.1 µM under setting [1] came to 5.7%. On to `Cc1cc(F)c(F)cc1C(=O)Nc1cc(C(=O)N(C)c2ccc(-c3nnn[nH]3)cc2)n[nH]1` [Example 7-2], for which, under setting [2], the pIC50 was more than 7.00. For the molecule `O=C(Nc1cc(C(=O)N2CCCc3ccccc32)n[nH]1)c1cc(F)c(F)cc1Cl` [Example 3-15], the pIC50 under setting [3] is 6.52 to 7.00. With `O=C(O)COc1ccccc1CNC(=O)c1cc(NC(=O)c2cc(F)c(F)cc2Cl)[nH]n1` [Example 3-48], the pIC50 under setting [3] is more than 7.00. With `Nc1ccccc1CNC(=O)c1cc(NC(=O)c2cc(F)c(F)cc2Cl)[nH]n1` [Example 1-65], the pIC50 under setting [3] is more than 7.00. Turning to `COC(=S)ON=C(N)c1ccc(N(C)C(=O)c2cc(NC(=O)c3cc(F)c(F)cc3Cl)[nH]n2)cc1` [Example 6-14], the inhibition at 0.1 µM under setting [4] was 20.1%.

For `O=C(N[C@H](CO)c1ccccc1)c1cc(NC(=O)c2cc(F)c(F)cc2Cl)[nH]n1` [Example 3-23], the inhibition at 1 µM under setting [5] was 26.1%.

For the molecule `O=C(NCc1ncccc1C(F)(F)F)c1cc(NC(=O)c2cc(F)c(F)cc2Cl)[nH]n1` [Example 1-27], under setting [3], the pIC50 is more than 7.00. As for `COc1ccc(F)cc1C(=O)Nc1cc(C(=O)NCc2ccccc2)n[nH]1` [Example 4-16], under setting [6], the inhibition at 0.3 µM was 5.1%. As for `CC(C)CN(C(=O)c1cc(NC(=O)c2cc(F)c(F)cc2Cl)[nH]n1)c1ccccc1` [Example 4-24], under setting [3], the pIC50 is 6.52 to 7.00.

As to `O=C(NCc1ccccc1)c1cc(NC(=O)c2ccc(Cl)nc2Cl)[nH]n1` [Example 4-39], the inhibition at 0.3 µM under setting [6] was found to be 5.3%.

Consider `CN(C(=O)c1cc(NC(=O)c2cc(F)c(F)cc2Cl)[nH]n1)c1ccc(C(=O)NS(C)(=O)=O)cc1` [Example 6-5], for which the pIC50 under setting [2] was more than 7.00. As for `COc1ccccc1NC(=O)c1cc(NC(=O)c2cc(F)c(F)cc2Cl)[nH]n1` [Example 3-27], the inhibition at 0.3 µM under setting [6] was 41.5%. Take `O=C(Nc1cc(C(=O)NCc2cccnc2)n[nH]1)c1ccccc1` [Example 7-8]: the inhibition at 0.3 µM under setting [7] is 6.8%. With `O=C(NCc1ccccc1)c1cc(NC(=O)c2ccc(F)cc2C(F)(F)F)[nH]n1` [Example 4-32], the inhibition at 0.3 µM under setting [6] was determined as 7.8%. Regarding `CN(C(=O)c1cc(NC(=O)c2cc(F)c(N=[N+]=[N-])cc2Cl)[nH]n1)c1ccc(-c2nnn[nH]2)cc1` [Example 6-10], under setting [2], the pIC50 is 6.52 to 7.00. As to `O=C(NCc1cccnc1)c1cc(NC(=O)c2sccc2Cl)[nH]n1` [Example 7-7], the inhibition at 0.3 µM under setting [7] was found to be 2.9%. As for `O=C(NCc1cc(F)cc(F)c1)c1cc(NC(=O)c2cc(F)c(F)cc2Cl)[nH]n1` [Example 1-23], the negative logarithm of the IC50 (pIC50) under setting [3] is more than 7.00.

Consider `CCOC(=O)C(C)(C)c1cnc(NC(=O)c2cc(NC(=O)c3cc(F)c(F)cc3Cl)[nH]n2)c(OCC)c1` [Example 1-148], for which the inhibition at 0.1 µM under setting [1] is 14.1%.

Regarding `CCC(CC)N(CCOC)C(=O)c1cc(NC(=O)c2cc(F)c(F)cc2Cl)[nH]n1` [Example 1-103], the inhibition at 0.3 µM under setting [6] stood at 21.6%. Take `CCOC1(C)Nc2ccccc2CN1C(=O)c1cc(NC(=O)c2cc(F)c(F)cc2Cl)[nH]n1` (stereo not drawn) [Example 6-47]: the inhibition at 0.1 µM under setting [4] came out at 41.1%.

For `Cc1nn(C)c(C)c1CNC(=O)c1cc(NC(=O)c2cc(F)c(F)cc2Cl)[nH]n1` [Example 1-55], the pIC50 under setting [3] is more than 7.00.

Turning to `COc1ccc(Cl)cc1C(=O)Nc1cc(C(=O)NCc2ccccc2)n[nH]1` [Example 4-17], the inhibition at 0.3 µM under setting [6] worked out at 1.1%. Turning to `COc1ccsc1CNC(=O)c1cc(NC(=O)c2cc(F)c(F)cc2Cl)[nH]n1` [Example 1-160], under setting [3], the negative logarithm of the IC50 (pIC50) was more than 7.00. On to `O=C(Nc1cc(C(=O)N2C=Nc3ccc(F)cc3C2)n[nH]1)c1cc(F)c(F)cc1Cl` [Example 6-46], for which the pIC50 under setting [2] is more than 7.00. As to `CCCCN(C(=O)c1cc(NC(=O)c2cc(F)c(F)cc2Cl)[nH]n1)C1CCNCC1` [Example 1-109], the inhibition at 0.3 µM under setting [6] is 33.3%. On to `O=C(O)CCN(Cc1ccccc1)C(=O)c1cc(NC(=O)c2cc(F)c(F)cc2Cl)[nH]n1` [Example 1-131], for which the pIC50 under setting [3] was more than 7.00. For `O=C(Nc1cc(C(=O)N(Cc2ccccc2)Cc2ccccc2)n[nH]1)c1cc(F)c(F)cc1Cl` [Example 1-74], the pIC50 under setting [3] is 6.52 to 7.00.

`COC(=O)c1ccc(N(C)C(=O)c2cc(NC(=O)c3cc(F)c(F)cc3Cl)[nH]n2)cc1` [Example 4-1, methyl 5-(2-chloro-4,5-difluorobenzoylamino)-1H-pyrazole-3-carbocylic acid (4-methoxycarbonyl-phenyl)-methyl-amide]: the inhibition at 1 µM under setting [5] turned out to be 13.8%. As to `CCN(C=Nc1ccc(CNC(=O)c2cc(NC(=O)c3cc(F)c(F)cc3Cl)[nH]n2)cc1)CC` [Example 6-29], the pIC50 under setting [2] was more than 7.00. `O=C(Nc1cccc2cccnc12)c1cc(NC(=O)c2cc(F)c(F)cc2Cl)[nH]n1` [Example 1-146]: under setting [1], the inhibition at 0.1 µM amounted to 11.3%. On to `O=C(NCc1ccc(N2CCS(=O)(=O)CC2)nc1)c1cc(NC(=O)c2cc(F)c(F)cc2Cl)[nH]n1` [Example 1-154], for which the pIC50 under setting [3] is more than 7.00. Consider `CN(C(=O)c1cc(NC(=O)c2cc(F)c(F)cc2Cl)[nH]n1)c1cccc(C(=O)O)c1` [Example 2-14], for which the inhibition at 0.3 µM under setting [6] turned out to be 37.5%. On to `Nc1cccc(CNC(=O)c2cc(NC(=O)c3cc(F)c(F)cc3Cl)[nH]n2)c1` [Example 3-30], for which, under setting [3], the pIC50 is more than 7.00. Still for that read-out and setting: under `CCN(CCOC)C(=O)c1cc(NC(=O)c2cc(F)c(F)cc2Cl)[nH]n1` [Example 1-7] stands 6.52 to 7.00. Turning to `CCN(C=Nc1ccccc1CNC(=O)c1cc(NC(=O)c2cc(F)c(F)cc2Cl)[nH]n1)CC` [Example 6-27], the pIC50 under setting [2] is more than 7.00. On to `CCOc1cc(C(C)(C)C(=O)O)cnc1NC(=O)c1cc(NC(=O)c2cc(F)c(F)cc2Cl)[nH]n1` [Example 1-151], for which the “inhibition rate (%) at a certain concentration” value (compound concentration 100 nmol (in parentheses)) is on record as 13.3%(100). Regarding `O=C(NCc1cccnc1)c1cc(NC(=O)c2cc(F)c(F)cc2Cl)[nH]n1` [Example 1-1, 5-(2-chloro-4,5-difluoro-benzoylamino)-1H-pyrazole-3-carboxylic acid (pyridin-3-ylmethyl)-amide], under setting [3], the pIC50 is more than 7.00. On the same count and under the same terms, for `CC(C)OCCN(C(=O)c1cc(NC(=O)c2cc(F)c(F)cc2Cl)[nH]n1)C1CCCCC1` [Example 1-101] the value was more than 7.00. Turning to `COC(=O)[C@@H](NC(=O)c1cc(NC(=O)c2cc(F)c(F)cc2Cl)[nH]n1)c1ccccc1` [Example 3-13], the inhibition at 1 µM under setting [5] was 25.5%. With `COc1ccc(CNC(=O)c2cc(NC(=O)c3cc(F)c(F)cc3Cl)[nH]n2)c(OC)c1` [Example 1-14], the negative logarithm of the IC50 (pIC50) under setting [3] is more than 7.00. For `COCCNC(=O)c1cc(NC(=O)c2cc(F)c(F)cc2Cl)[nH]n1` [Example 1-106], the negative logarithm of the IC50 (pIC50) under setting [3] is 6.52 to 7.00.
